Data taken from US4992449A, “7-(substituted)cycloalkylamino-1 -(substituted)-6-fluoro-1,4-dihydro-4-oxo-3-quinolinecarboxylic acids” (American Cyanamid Company, priority 1990, dated 1991).
≈ marks a conversion by molar mass, not a printed value. Like-named read-outs stand apart in the source and are kept apart here.

Assays:
Assay in all cases: In vitro antibacterial MIC, agar plate dilution
Assay type in all cases: cell-based
[1] = system: Escherichia coli ATCC 25922; conditions: Table II, Excherichia coli ATCC 25922
Procedure: (§1) The in vitro antimicrobial spectrum of the compounds of this invention were determined by the agar plate dilution method with Mueller-Hinton agar and an inoculum of each test organism of approximately 10^4 colony forming units delivered by the Steers replicating device. The minimal inhibitory concentration (MIC) in mcg/ml is defined as the lowest concentration of test compound that inhibited visible growth after 18 hours incubation at 35° C. Results are given in Table I, with the test compounds identified by the number of their hereinafter described examples

[2] = system: Excherichia coli CMC 84-11; conditions: Table II
Procedure: as §1

Excherichia coli LL 311 = conditions: Table II
Procedure: as §1

[3] = system: Morganella morganii CMC 84-37; conditions: Table II
Procedure: as §1

[4] = system: Proteus rettgeri CMC 84-41; conditions: Table II
Procedure: as §1

[5] = system: Pseudomonas aeruginosa LL-1244; conditions: Table II
Procedure: as §1

[6] = system: Pseudomonas aeruginosa VGH 84-4; conditions: Table II
Procedure: as §1

[7] = system: Serratia marcescens K 84-18; conditions: Table II
Procedure: as §1

[8] = system: Serratia marcescens VGH 84-30; conditions: Table II
Procedure: as §1

[9] = system: Staphylococcus aureus ATCC 29213; conditions: Table II
Procedure: as §1

[10] = system: Staphylococcus aureus Smith 1; conditions: Table II
Procedure: as §1

[11] = system: Staphylococcus aureus VGH 84-45; conditions: Table II
Procedure: as §1

[12] = system: Streptococcus faecalis UCI 85-19; conditions: Table II
Procedure: as §1

[13] = system: Streptococcus faecalis VGH 84-65; conditions: Table II
Procedure: as §1

[14] = Escherichia coli, ATCC25922, 18 h, read-out: MIC
[15] = Providencia rettgeri, CMC8441, 18 h, read-out: MIC
[16] = Pseudomonas aeruginosa, LL1244, 18 h, read-out: MIC
[17] = Pseudomonas aeruginosa, VGH844, 18 h, read-out: MIC
[18] = Staphylococcus aureus, ATCC29213, 18 h, read-out: MIC
[19] = Staphylococcus aureus, SMITH1, 18 h, read-out: MIC
[20] = Enterococcus faecalis, UCI8519, 18 h, read-out: MIC
[21] = Enterococcus faecalis, VGH8465, 18 h, read-out: MIC

SMILES | MIC [1, 14] [µg/mL] | MIC ([2]; 18 h, read-out: MIC) [µg/mL] | MIC (Excherichia coli LL 311; 18 h, read-out: MIC) [µg/mL] | MIC ([3]; CMC8437, 18 h, read-out: MIC) [µg/mL] | MIC [4, 15] [µg/mL] | MIC [5, 16] [µg/mL] | MIC [6, 17] [µg/mL] | MIC ([7]; K8418, 18 h, read-out: MIC) [µg/mL] | MIC ([8]; VGH8430, 18 h, read-out: MIC) [µg/mL] | MIC [9, 18] [µg/mL] | MIC [10, 19] [µg/mL] | MIC ([11]; VGH8445, 18 h, read-out: MIC) [µg/mL] | MIC [12, 20] [µg/mL] | MIC [13, 21] [µg/mL] | MIC [10] [µg/mL] | other results
CCn1cc(C(=O)O)c(=O)c2cc(F)c(N[C@@H]3CCCC[C@H]3N)cc21 (racemic) [Example 7, Trans-(+/-)-7-[(2-Aminocyclohexyl)amino]1-ethyl-6-fluoro-1,4-dihydro-4-oxo-3-quinolinecarboxylic acid] | 32 (≈ 92.1 µM) | 16 (≈ 46.1 µM) | 32 (≈ 92.1 µM) | 32 (≈ 92.1 µM) | 128 (≈ 368 µM) | 128 (≈ 368 µM) | 128 (≈ 368 µM) | 64 (≈ 184 µM) | 128 (≈ 368 µM) | > 128 | 16 (≈ 46.1 µM) | 128 (≈ 368 µM) | 128 (≈ 368 µM) | 64 (≈ 184 µM) |  | 
CCn1cc(C(=O)O)c(=O)c2cc(F)c(N[C@@H]3CCCC[C@@H]3O)cc21 (relative stereo) [Example 5, Cis-7-[(2-Hydroxycyclohecxyl)amino]-1-ethyl-6-fluoro-1,4-dihydro-4-oxo-3-quinolinecarboxylic acid] | 32 (≈ 91.9 µM) | 32 (≈ 91.9 µM) | 16 (≈ 45.9 µM) | 32 (≈ 91.9 µM) | 64 (≈ 184 µM) | > 128 | > 128 | 64 (≈ 184 µM) | > 128 | 64 (≈ 184 µM) | 8 (≈ 23 µM) | 32 (≈ 91.9 µM) | > 128 | > 128 |  | 
CCn1cc(C(=O)O)c(=O)c2cc(F)c(N[C@@H]3CCCC[C@@H]3N)cc21 (relative stereo) [Example 6, Cis-7-[(2-Aminocyclohexyl)amino]-1-ethyl-6-fluoro-1,4-dihydro-4-oxo-3-quinolinecarboxylic acid] | 0.5 (≈ 1.44 µM) | 0.5 (≈ 1.44 µM) | 0.5 (≈ 1.44 µM) | 0.5 (≈ 1.44 µM) | 1 (≈ 2.88 µM) | 8 (≈ 23 µM) | 8 (≈ 23 µM) | 1 (≈ 2.88 µM) | 4 (≈ 11.5 µM) | 8 (≈ 23 µM) | 0.5 (≈ 1.44 µM) | 2 (≈ 5.76 µM) | 8 (≈ 23 µM) | 8 (≈ 23 µM) |  | 
CCn1cc(C(=O)O)c(=O)c2cc(F)c(N[C@@H]3CCCC[C@H]3N)cc21 (relative stereo) [Example 8, Trans-(-)-7-[(2-Aminocyclohexyl)amino]-1-ethyl-6-fluoro-1,4-dihydro-4-oxo-3-quinolinecarboxylic acid] | 32 (≈ 92.1 µM) | 16 (≈ 46.1 µM) | 32 (≈ 92.1 µM) | 32 (≈ 92.1 µM) | 128 (≈ 368 µM) | > 128 | > 128 | 32 (≈ 92.1 µM) | 128 (≈ 368 µM) | 128 (≈ 368 µM) |  | 128 (≈ 368 µM) | 128 (≈ 368 µM) | 64 (≈ 184 µM) | 16.00 (≈ 46.1 µM) | 
CCn1cc(C(=O)O)c(=O)c2cc(F)c(N[C@@H]3CCCC[C@H]3N)cc21 (relative stereo) [Example 9, Trans-(+)-7-[(2-Aminocyclohexyl)amino]-1-ethyl-6-fluoro-1,4-dihydro-4-oxo-3-quinolinecarboxylic acid] |  |  |  |  |  |  |  |  |  |  |  |  |  |  | 128.00 (≈ 368 µM) | MIC [1]: 32.00 µg/mL (≈ 92.1 µM); MIC [2]: 16.00 µg/mL (≈ 46.1 µM); MIC (Excherichia coli LL 311): 32.00 µg/mL (≈ 92.1 µM); MIC [3]: 32.00 µg/mL (≈ 92.1 µM); MIC [4]: 128.00 µg/mL (≈ 368 µM); MIC [5]: 128.00 µg/mL (≈ 368 µM); MIC [6]: 128.00 µg/mL (≈ 368 µM); MIC [7]: 32.00 µg/mL (≈ 92.1 µM); MIC [8]: 128.00 µg/mL (≈ 368 µM); MIC [9]: > 128.00 µg/mL; MIC [11]: 128.00 µg/mL (≈ 368 µM); MIC [12]: 128.00 µg/mL (≈ 368 µM); MIC [13]: 64.00 µg/mL (≈ 184 µM)
CCn1cc(C(=O)O)c(=O)c2cc(F)c(N[C@@H]3CCCC[C@@H]3NC)cc21 (relative stereo) [Example 10] | 8 (≈ 22.1 µM) | 4 (≈ 11.1 µM) | 4 (≈ 11.1 µM) | 8 (≈ 22.1 µM) | 32 (≈ 88.5 µM) | 128 (≈ 354 µM) | 128 (≈ 354 µM) | 8 (≈ 22.1 µM) | 32 (≈ 88.5 µM) | 8 (≈ 22.1 µM) | 2 (≈ 5.53 µM) | 4 (≈ 11.1 µM) | 32 (≈ 88.5 µM) | 32 (≈ 88.5 µM) |  | 
